# Laboratory results as given in patent publication US20250129101A1, “Compound, Pharmaceutical Composition Comprising the Same and Method for Treating Cancer Using the Same” (NATIONAL TSING HUA UNIVERSITY, priority 2023, published 2025).
# Legend:
# KIF2C [1] = biological target: T1, KIF2C (Homo sapiens, UniProt Q99661); assay: In vitro validation: KIF2C kinesin activity, malachite green-based phosphate colorimetric assay; format: biochemical
# T1 construct: KIF2C (216-598 a.a.); 6xHis (C); made in house; host or cells: E. coli BL21 (DE3), pET-28a
# Method in brief: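 KIF2C sN+M construct (aa 216-598, C-terminal 6×His, E. coli-expressed) ATPase activity with microtubules from porcine brain tubulin or HEK293 (293Fs) cells in BRB80 (80 mM PIPES pH 6.8, 1 mM GTP, 10% DMSO), 37° C for 2 hr. Released phosphate detected by malachite green reagent, 10 min, A650.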
# [2] = test system: MDA-MB-231 R, MDA-MB-231 S, 4T1 S1, R4, and R8 cells; assay: Cell viability of indicated cell lines, DHTP or 7S9 for 72 hr; format: cell-based; settings: Homo sapiens, range over MDA-MB-231 R, read-out: cytotoxicity IC50 values
# Protocol: The cancer cells were cultured in a 96-well plate at a confluence of 1000-2000 cells/well with indicated drugs for specific days. When the time was up, the culture medium in the plate was aspirated and replaced with a prepared CellTiter-Glo reagent/DMEM mixture (1:1 mix of CellTiter-Glo reagent and serum-supplemented DMEM). After incubation for 10 min, the luminescence (proportional to the number of living cells) was measured with an ELISA plate reader to determine the cell viability.
# 4T1 cells = assay: Flow cytometry analysis of cell membrane penetration ability; format: cell-based, mouse; settings: 2 hr of drug treatment
# Protocol: To quantify the cell membrane penetration ability of different DHTP analogs, 4T1 cells were collected by trypsin after 2 hr of drug treatment and then transferred into microcentrifuge tubes. 4T1 cells were then resuspended into the FACS buffer (1% FBS, 2 mM EDTA, and 0.05% NaN3 in PBS). After two times of FACS buffer rinsing, these samples were detected by flow cytometry (Cyto FLEX™ FLOW Cytometer). The KO525 (405 nm laser; 525 nm filter) channel was used to detect DHTP and 7S9.
# KIF2C [3] = biological target: T1, KIF2C; assay: In vitro microtubule depolymerization assay; format: biochemical; settings: 50 μM 7S9, recombinant KIF2C and ATP, 30 min
# Protocol: Additional purified KIF2C (0.5 ng/μl), ATP (0.75 mM), and 7S9 (50 μM) were included in a typical 10 μL reaction, as indicated, loaded onto a p-Slide (Ibidi, 81506) and incubated at 37° C. for 30 min. Images were acquired using the Leica DMI6000 microscope with an HCX PL FL 20×/0.4 and Andor Neo sCMOS camera, which were all processed by MetaMorph software (Molecular Devices, LLC. San Jose, CA, USA).
# 4T1 R8 cells = assay: Time-lapse imaging of mitotic progression, 4T1 R8 cells; format: cell-based, mouse; settings: 1 μM 7S9 and 400 nM paclitaxel
# Protocol: To investigate the role of KIF2C in cell cycle progression, 4T1 cells were cultured in the 4-well chamber slide with about 50% confluence. The culture medium was replaced with a CO2-independent medium (Gibco) supplemented with 10% fetal bovine serum (Biological Industries) and 1% penicillin-streptomycin (Biowest). Then, each well of the chamber slide was treated with indicated drugs, such as DMSO, KIF2C inhibitors, or chemotherapy drugs. After that, the chamber slide was maintained in the microscope stage incubator with the supplement of humidified air with 5% CO2 at 37° C. Multiple-positional time-lapse imaging was performed using an automated Leica DM16000 inverted microscope equipped with HCX PL FL 20×/0.4 and EMCCD camera (Andor Luca R, Belfast, UK). Sequential differential interference contrast (DIC) images of cells obtained at indicated intervals were further analyzed using Metamorph software (Molecular Devices).
# T1 sequence (Q99661 216-598): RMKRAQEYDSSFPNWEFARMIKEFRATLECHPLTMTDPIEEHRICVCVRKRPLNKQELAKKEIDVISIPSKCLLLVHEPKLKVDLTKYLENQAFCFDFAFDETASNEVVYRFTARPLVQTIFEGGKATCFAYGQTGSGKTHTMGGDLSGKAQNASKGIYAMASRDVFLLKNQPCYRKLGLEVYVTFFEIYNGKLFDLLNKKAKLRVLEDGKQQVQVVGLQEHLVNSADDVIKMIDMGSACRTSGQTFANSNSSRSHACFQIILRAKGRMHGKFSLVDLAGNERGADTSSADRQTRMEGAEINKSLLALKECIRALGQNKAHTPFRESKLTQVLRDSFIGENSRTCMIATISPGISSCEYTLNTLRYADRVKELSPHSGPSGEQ
smiles,measurement,setting,value
"CCN1CCN(C(=O)COc2ccc(/C=c3\sc4n(c3=O)C(c3ccc(Cl)cc3)C(C(=O)OC(C)C)=C(C)N=4)cc2)CC1.O=C(O)/C=C\C(=O)O (centres unmarked) [7S9 (133), isopropyl (Z)-5-(4-chlorophenyl)-2-(4-(2-(4-ethylpiperazin-1-yl)-2-oxoethoxy)benzylidene)-7-methyl-3-oxo-2,3-dihydro-5H-thiazolo[3,2-a]pyrimidine-6-carboxylate maleate]",inhibitory effect against KIF2C (in words),KIF2C [1]; 50 μM (FIG. 4I),selective inhibition against KIF2C
same,KIF2C activity in the presence of paclitaxel (in words),"KIF2C [1]; 100 μM 7S9, 1 μM paclitaxel",could successfully inhibit KIF2C activity in the presence of paclitaxel
same,inhibition of KIF2C kinesin activity (in words),KIF2C [1]; 100 μM (FIG. 4B),most potent inhibitor of KIF2C
same,EC50,KIF2C [1]; concentration that inhibits 50% of KIF2C activity,< 50 µM
same,IC50,[2],4.9 to 8.6 µM
same,"cell penetration, fluorescence signal at 510 nm emission (in words)",4T1 cells,good cell-penetrating property
same,KIF2C-mediated microtubule depolymerization (in words),KIF2C [3],completely blocked
same,"mitotic defects, combined treatment (in words)",4T1 R8 cells,induced significant defects in mitosis
